In publication PMC13626384 (Journal of medicinal chemistry, 2025):
“Also recorded” adds a separate entry of the source. Like-named read-outs stand apart in the source and are kept apart here. Marks after values point to notes of the source that are not given here.

Tests used:
[1] = target: human constitutive proteasome (c20S) β1 (Homo sapiens, UniProt P28072+Q99436); assay: Proteasome subunit inhibition, c20S β1; format: biochemical
[2] = target: human immunoproteasome (i20S) β5 (Homo sapiens, UniProt P20618+P28062); assay: Proteasome subunit inhibition, i20S β5; format: biochemical
[3] = target: human constitutive proteasome (c20S) β5 (Homo sapiens, UniProt P20618+P28074); assay: Proteasome subunit inhibition, c20S β5; format: biochemical
[4] = PAMPA-BBB permeability assay; conditions: PAMPA-BBB; for recovery / Papp: PAMPA; for recovery: % Recovery; for Papp: Mean Permeability
D283-med cell line = assay: Cytotoxicity against D283-med cells; format: cell-based, human
SF188 cell line = assay: Cytotoxicity against SF188 cells; format: cell-based, human
[5] = target: human constitutive proteasome (c20S) β2 (Homo sapiens, UniProt P49720+Q99436); assay: Proteasome subunit inhibition, c20S β2; format: biochemical
[6] = target: human immunoproteasome (i20S) β2 (Homo sapiens, UniProt P40306+P49720); assay: Proteasome subunit inhibition, i20S β2; format: biochemical
[7] = Caco-2 cell permeability and efflux; format: in vitro ADME, human; conditions: human; for Papp A→B / Papp B→A: Caco-2
P-gp = assay: Caco-2 cell permeability and efflux; format: in vitro ADME, human; conditions: human, Caco-2
[8] = target: human immunoproteasome (i20S) β1 (Homo sapiens, UniProt P28065+P40306); assay: Proteasome subunit inhibition, i20S β1; format: biochemical
H460 cell line = assay: Cytotoxicity against H460 cells; format: cell-based; conditions: read-out: H460 IC50; non-small cell lung cancer cell line
Plasma stability = format: in vitro ADME; conditions: for Plasma Stability % remaining: mouse plasma
Caco-2 cells [9] = assay: Caco-2 cell permeability and efflux; format: in vitro ADME, human; conditions: for Efflux Ratio: Caco-2; for % Recovery (A-B): Caco-2, A-B direction; for % Recovery (B-A): Caco-2, B-A direction; for Pe (A-B): Caco-2, apical to basolateral; for Pe (B-A): Caco-2, basolateral to apical
[10] = Liver microsomal stability; conditions: mouse liver microsomes
[11] = tested on: human foreskin fibroblasts (HFF-1) cell line; assay: Cytotoxicity against HFF-1 cells; format: cell-based; conditions: read-out: HFF-1 IC50; non-cancerous fibroblasts
[12] = In vivo pharmacokinetics, plasma and brain; parameters: species or system Male C57BL/6 mice; conditions: mice
mice = assay: Toxicity observation in the PK study; format: in vivo; conditions: 1 mg/kg i.v.
Caco-2 cells [13] = conditions: ref Literature data; cited from earlier work
in vitro = conditions: mouse liver microsomes
Whole blood stability = format: in vitro ADME; conditions: whole blood incubation, 2 hours
[14] = Homo sapiens, D283 Med, read-out: D283-med IC50, medulloblastoma cell line
[15] = Homo sapiens, SF-188, read-out: SF188 IC50, glioblastoma cell line
[16] = Caco-2, % Recovery (A-B), Caco-2, A-B direction
[17] = Caco-2, % Recovery (B-A), Caco-2, B-A direction
[18] = read-out: i20S β5 IC50 ± SD, read 60 to 90 minutes after start
[19] = read-out: D283-med IC50, medulloblastoma cell line
[20] = read-out: SF188 IC50, glioblastoma cell line
[21] = read-out: i20S β2 IC50 ± SD, read 60 to 90 minutes after start
[22] = read-out: i20S β1 IC50 ± SD, read 60 to 90 minutes after start

| Structure (SMILES) | IC50 [1] | recovery [4] | Papp [4] | IC50 (D283-med cell line; [14]) | IC50 (SF188 cell line; [15]) | IC50 [2, 18] | IC50 (H460 cell line) | % Recovery [4] | Mean Permeability [4] | IC50 (D283-med cell line; [19]) | IC50 (SF188 cell line; [20]) | Plasma Stability % remaining (Plasma stability; after 2 hr) | IC50 [6, 21] | % Recovery (A-B) (Caco-2 cells [9]) | % Recovery (B-A) (Caco-2 cells [9]) | Pe (A-B) (Caco-2 cells [9]) | Pe (B-A) (Caco-2 cells [9]) | Microsomal Stability Clearance Category [10] | Microsomal Stability mCLint [10] | IC50 [8, 22] | further results |
| --- | --- | --- | --- | --- | --- | --- | --- | --- | --- | --- | --- | --- | --- | --- | --- | --- | --- | --- | --- | --- | --- |
| CC(C)C[C@H](NC(=O)[C@@H]1CSCCOCCOCCC(=O)N[C@@H](C(C)C)C(=O)N1)C(=O)[C@@]1(C)CO1 [Compound 41, (9R,12S)-12-Isopropyl-N-((S)-4-methyl-1-((R)-2-methyloxiran-2-yl)-1-oxopentan-2-yl)-11,14-dioxo-1,4-dioxa-7-thia-10,13-diazacyclohexadecane-9-carboxamide] | 484 ± 33 nM | 98% | 0.22 ×10⁻⁶ cm/s | 90 ± 8 nM | 113 ± 9 nM | – | – | – | – | – | – | – | – | – | – | – | – | – | – | – | IC50 [2]: 4900 ± 2160 nM; IC50 [3]: 390 ± 50.7 nM; IC50 [5]: 110 ± 20.3 nM; IC50 [6]: 277 ± 49.1 nM; Papp A→B [7]: 0.75 ×10⁻⁶ cm/s; Papp B→A [7]: 20.8 ×10⁻⁶ cm/s; recovery [7, 16]: 102%; recovery [7, 17]: 101%; Efflux Ratio (P-gp): 27.6; IC50 [8]: 49 ± 2.2 nM |
| CC(C)C[C@H](NC(=O)[C@@H]1Cc2c(F)c(F)c(c(F)c2F)Sc2cccc(c2)CC(=O)NC(C)(C)C(=O)N1)C(=O)[C@@]1(C)CO1 [Compound 31, (S)-3^2,3^3,3^5,3^6-Tetrafluoro-8,8-dimethyl-N-((S)-4-methyl-1-((R)-2-methyloxiran-2-yl)-1-oxopentan-2-yl)-7,10-dioxo-2-thia-6,9-diaza-1(1,3),3(1,4)-dibenzenacycloundecaphane-5-carboxamide] | – | – | – | – | – | 763 ± 199 nM | 175 ± 16 nM | 64% | 3.70 10^−6 cm/sec | 57 ± 14 nM | 24 ± 9 nM | 81 after 2 hr % | 1060 ± 121 nM | 94% | 73% | 3.6 10^−6 cm/sec | 63.0 10^−6 cm/sec | High | 182 µL/min/mg | 207 ± 14.3 nM | Efflux Ratio (Caco-2 cells [9]): 17.6; Microsomal Stability t1/2 [10]: 8 min; IC50 [11]: 122 ± 14 nM |
| CC(C)C[C@H](NC(=O)[C@@H]1Cc2c(F)c(F)c(c(F)c2F)S(=O)(=O)c2cccc(c2)CC(=O)N[C@@H](C(C)C)C(=O)N1)C(=O)[C@@]1(C)CO1 [Compound 11, (5S,8S)-3^2,3^3,3^5,3^6-Tetrafluoro-8-isopropyl-N-((S)-4-methyl-1-((R)-2-methyloxiran-2-yl)-1-oxopentan-2-yl)-7,10-dioxo-2-thia-6,9-diaza-1(1,3),3(1,4)-dibenzenacycloundecaphane-5-carboxamide 2,2-dioxide] | – | – | – | – | – | 830 ± 260 nM | 79 ± 20 nM | 64% | 2.15 10^−6 cm/sec | 6 ± 2 nM | 9.8 ± 1.2 nM | 88% | 829 ± 187 nM | 91% | 97% | 7.2 10^−6 cm/sec | 45.4 10^−6 cm/sec | Medium | 43 µL/min/mg | 379 ± 47.7 nM | Plasma half-life ([12]; 10 mg/kg i.v., with and without tariquidar): 72 to 84 min; Brain tissue concentration ([12]; 10 mg/kg i.v., with and without tariquidar, 30 minutes and 2 hours): no quantifiable concentrations were detected; Microsomal Stability t1/2 [10]: 32 min; IC50 [11]: 85 ± 7 nM |
| CC(C)C[C@H](NC(=O)[C@@H]1Cc2c(F)c(F)c(c(F)c2F)Sc2cccc(c2)CC(=O)N[C@@H](C(C)C)C(=O)N1)C(=O)[C@@]1(C)CO1 [Compound 10, (5S,8S)-3^2,3^3,3^5,3^6-Tetrafluoro-8-isopropyl-N-((S)-4-methyl-1-((R)-2-methyloxiran-2-yl)-1-oxopentan-2-yl)-7,10-dioxo-2-thia-6,9-diaza-1(1,3),3(1,4)-dibenzenacycloundecaphane-5-carboxamide] | – | – | – | – | – | 532 ± 56.9 nM | 2590 nM | 49% | 3.48 10^−6 cm/sec | 17 ± 7 nM | 123 ± 8 nM | 98 after 2 hr % | 464 ± 50.1 nM | 83% | 75% | 25.1 10^−6 cm/sec | 34.4 10^−6 cm/sec | High | 202 µL/min/mg | 163 ± 14.9 nM | Pe (effective permeability) [4]: around 4 10^−6 cm s^−1; Plasma Stability % remaining (Plasma stability; after 5 hr): more than 75%; Mean B/P ratio ([12]; 1 mg/kg i.v., 1.0 h): 0.78; Mean Brain Con ([12]; 1 mg/kg i.v., 1.0 h): 12.0 ng/g; Mean Plasma Conc. ([12]; 1 mg/kg i.v., 1.0 h): 16.8 ng/mL; Mean Plasma Conc. ([12]; 1 mg/kg i.v., 4.0 h): 5.4 ng/mL; Mean Brain Con ([12]; 1 mg/kg i.v., 4.0 h, LLOQ 2.00 ng/mL, 1 mg/kg): below the limit of quantification and BLQ; Plasma Cmax ([12]; 1 mg/kg i.v., earliest time point): 423 ng/mL; Signs of toxicity (mice; 1 mg/kg): no signs of toxicity were observed; also recorded: lack of toxicity; Efflux Ratio (Caco-2 cells [9]): 1.4 |
| CC(C)C[C@H](NC(=O)[C@H](CCc1ccccc1)NC(=O)CN1CCOCC1)C(=O)N[C@@H](Cc1ccccc1)C(=O)N[C@@H](CC(C)C)C(=O)[C@@]1(C)CO1 [Carfilzomib, reference compound] | – | 41% | 1.43 ×10⁻⁶ cm/s | 205 ± 24 nM | 706 ± 82 nM | – | – | – | – | – | – | – | – | – | – | – | – | High | – | – | Efflux Ratio (Caco-2 cells [13]): 28.6*; remaining at 2 h (Plasma stability; mouse, plasma, Plasma Stability % remaining, after 2 hr): 99%; half-life (in vitro): < 5 min |
| CC(C)C[C@H](NC(=O)[C@@H]1CS(=O)(=O)CCCCCCCCCC(=O)N[C@@H](C(C)C)C(=O)N1)C(=O)[C@@]1(C)CO1 [Compound 40, (3R,6S)-6-Isopropyl-N-((S)-4-methyl-1-((R)-2-methyloxiran-2-yl)-1-oxopentan-2-yl)-5,8-dioxo-1-thia-4,7-diazacycloheptadecane-3-carboxamide 1,1-dioxide] | 767 ± 177 nM | 77% | 3.34 ×10⁻⁶ cm/s | 2.3 nM | 6.7 ± 0.3 nM | – | – | – | – | 2.26 ± 0.26 nM | – | 94 after 2 hr % | – | – | – | – | – | High | – | – | IC50 [2]: 16 ± 2 nM; IC50 [3]: 7.5 ± 0.6 nM; Whole blood retention (Whole blood stability): ~ 15%; IC50 [5]: 39.4 ± 6.3 nM; remaining at 5 h (Plasma stability; mouse, plasma, Plasma Stability % remaining, after 5 hr): > 75%; Levels in brain tissues ([12]; 1 mg/kg i.v.): failed to achieve detectable levels; Plasma concentrations after dosing ([12]; 1 mg/kg i.v.): negligible plasma concentrations beyond 5 minutes post-dosing; Plasma concentrations after dosing ([12]; 10 mg/kg): did not exhibit significant plasma concentrations beyond 5 minutes post-administration; Signs of toxicity (mice): lack of toxicity; IC50 [6]: 23 ± 1.6 nM; Papp A→B [7]: 10.1 ×10⁻⁶ cm/s; Papp B→A [7]: 48.8 ×10⁻⁶ cm/s; recovery [7, 16]: 91%; recovery [7, 17]: 89%; Efflux Ratio (P-gp): 4.8; half-life (in vitro): < 5 min; microsomal CLint (in vitro): 323 µL/min/mg; IC50 [8]: 144 ± 9.2 nM |
